Values of other authors, collected in patent US9265822B2 (priority 2009, dated 2016).

System: 2009 H1N1 swine flu virus
For CC(=O)N[C@H]1[C@H]([C@H](O)[C@H](O)CO)OC(C(=O)O)=C[C@@H]1N=C(N)N [zanamivir], the “effectiveness against the 2009 "swine" flu” value (from here on “effectiveness”) is listed as “effective”. For CC(N)C12CC3CC(CC(C3)C1)C2 (stereo not shown) [rimantadine], the “effectiveness” value is given as “not proven effect”. In the case of NC12CC3CC(CC(C3)C1)C2 [amantadine], the “effectiveness” value is listed as “not proven effect”. For CCOC(=O)C1=C[C@@H](OC(CC)CC)[C@H](NC(C)=O)[C@@H](N)C1 [oseltamivir], the “effectiveness” value is listed as “effective”.
